Test results taken from patent US20140086901A1, “Inhibition of Post-Radiation Tumor Growth” (The Board of Trustees of the Leland Stanford Junior …, priority 2008, published 2014).
Where two headings read alike, the source gives them in different places.

Assays:
[1] = Body weight monitoring during drug treatment to assess side effects; settings: for loss in body weight during treatment: mice
MT1A2 tumors = assay: MT1A2 tumor growth on pre-irradiated tissues of BM-transplanted mice; settings: 100 μg/kg intraperitoneally once per day for up to 6 weeks
glioblastoma tumors = assay: Intracranial glioblastoma tumor growth with or without irradiation (bioluminescence imaging); assay type: in vivo, mouse
Protocol: Tumor growth was analyzed by using an IVIS in vivo imaging system (Caliper Life Sciences, Hopkinton, Mass.) to monitor the bioluminescence imaging of brain tumor.
AMD3100 (Sigma-Aldrich) was prepared in sterile saline.
After tumor inoculation on brain, carragenan treatment was done every five days.

[2] = system: CD45+CD11b+ and CD45+F4/80+ cells; assay: Immunostaining of brain samples for BM-derived myelomonocytic cells in glioblastoma tumors; assay type: in vivo, mouse; settings: irradiation plus drug; harvested 18 days after irradiation
Excerpt: Primary antibodies for immunofluorescent staining included a rat monoclonal CD31/PECAM-1 (MEC13.3; BD Pharmingen, San Diego, Calif.), a rabbit polyclonal GFP antibody (Invitrogen, Eugene, Oreg.), a rabbit polyclonal MMP-9 (Abeam, Cambridge, Mass.), a biotinylated CD11b/macrophage-associated antigen-1α (M1/70; BD Pharmingen), a biotinylated CD11c (HL3; BD Pharmingen), a biotinylated Gr-1/Ly-6C (RB6-8C5; BD Pharmingen), rat monoclonal F4/80 (A3-1, Gnetex, Irvine, Calif.), and CD45 (BD Pharmingen). Anti phosphorylated CXCR-4 polyclonal antibody was obtained from Dr. J B Rubbin at Washington University.
Unless otherwise indicated, […] frozen sections of tumors were dried in air, hydrated with PBS, blocked with 5% goat serum in PBS (containing 0.03% Triton X-100) for 30 min, and incubated with primary antibodies for 2 hr at room temperature (RT). Sections were washed three times in PBS, followed by secondary antibody for 1 hr at RT. For glioblastomas, 5 μm frozen sections of tumors were dried in air, hydrated with PBS, blocked with 5% goat serum in PBS (containing 0.03% Triton X-100) for 30 min, and incubated with primary antibodies over night at 4° C. Sections were washed three times in PBS, followed by secondary antibody for 40 min at room temperature. […]

[3] = mouse, in vivo

## O=P(O)(O)C(O)(Cn1ccnc1)P(=O)(O)O [ZA, aminobisphosphonate zolendronic acid]
[1]; treated every day
  loss in weight during treatment: less than 10 % of body weight
MT1A2 tumors; MMP-9 KO+WT BM mice
  tumor growth on the irradiated site: significant inhibition of tumor growth
MT1A2 tumors; WT+KO BM mice
  tumor growth on pre-irradiated tissues: no effect on tumor growth

## c1cc(CN2CCCNCCNCCCNCC2)ccc1CN1CCCNCCNCCCNCC1 [AMD3100]
Glioblastoma tumors; early tumor model, 2 Gy five times from day 11, drug for three weeks
  growth of irradiated tumors: significantly inhibited
Glioblastoma tumors; late tumor model, 15 Gy on day 21, drug for three weeks
  growth of irradiated tumors: significantly inhibited
[1]
  loss in body weight during treatment: did not show any significant loss in the weight

## N#Cc1ccc(/C=C/C(=O)O)cc1 [NSC-134754]
Glioblastoma tumors; irradiation on day 20 plus drug daily for three weeks
  post-irradiation tumor growth: decreased post-irradiation tumor growth
[2]
  CD45+CD11b+ cells in glioblastoma tumors: absence
  CD45+F4/80+ cells in glioblastoma tumors: absence
[1]
  loss in body weight during treatment: did not show any significant loss in the weight

## carrageenan
Glioblastoma tumors; treated 1, 3 and 7 days prior to implantation, then every five days, 15 Gy on day 26
  growth of irradiated tumors: significantly inhibited
[3]
  loss in body weight during treatment: did not show any significant loss in the weight
